Assay results from patent publication US20240190880A1 (THE REGENTS OF THE UNIVERSITY OF MICHIGAN, priority 2021, published 2024).

Each compound was assayed against T1, ER (Homo sapiens, UniProt P03372) (assay: ER degradation activity, in-cell western blot analysis in T47D cells). Conditions: 16 hours, Table A does not say which cell line (T47D or MCF7), read-out: Potency (DC50).
T1 construct: host or cells: T47D and MCF7 human breast cancer cells
T1 sequence (P03372 1-595): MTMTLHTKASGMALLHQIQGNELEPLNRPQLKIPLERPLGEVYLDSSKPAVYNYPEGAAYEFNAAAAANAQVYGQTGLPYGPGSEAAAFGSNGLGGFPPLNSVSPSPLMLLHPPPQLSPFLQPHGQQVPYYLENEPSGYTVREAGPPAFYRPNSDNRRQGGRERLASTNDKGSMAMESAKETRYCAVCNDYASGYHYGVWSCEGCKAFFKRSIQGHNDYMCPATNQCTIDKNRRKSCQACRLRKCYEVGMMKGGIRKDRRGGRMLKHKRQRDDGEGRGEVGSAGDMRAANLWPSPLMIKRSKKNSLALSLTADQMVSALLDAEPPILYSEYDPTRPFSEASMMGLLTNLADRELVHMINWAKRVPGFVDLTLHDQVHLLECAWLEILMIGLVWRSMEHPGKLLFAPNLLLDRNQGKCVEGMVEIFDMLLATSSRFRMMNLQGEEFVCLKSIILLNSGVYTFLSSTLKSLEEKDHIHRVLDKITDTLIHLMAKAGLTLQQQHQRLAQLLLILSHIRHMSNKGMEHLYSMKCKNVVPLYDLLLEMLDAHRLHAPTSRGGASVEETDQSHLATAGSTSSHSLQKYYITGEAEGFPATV
Format: cell-based
Procedure, shortened: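 T47D cells cultured in DMEM with 10% FBS, treated with compounds (final 0.5% DMSO) for 16 h. ER level measured by in-cell western with anti-rabbit-680/anti-mouse-800 near-infrared detection. Relative ER percentage calculated against untreated and DMSO-treated wells set as 100%.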

| Compound | DC50 [nM] |
| --- | --- |
| C[C@@H]1Cc2c([nH]c3ccccc23)[C@@H](c2c(F)cc(N3CCC4(CCN(C(=O)CN5Cc6cc7c(cc6C5)C(=O)N(C5CCC(=O)NC5=O)C7)C4)CC3)cc2F)N1CC(F)F (stereo partly drawn) [E 64, 3-(6-(2-(8-(4-((1R,3R)-2-(2,2-difluoroethyl)-3-methyl-2,3,4,9-tetrahydro-1H-pyrido[3,4-b]indol-1-yl)-3,5-difluorophenyl)-2,8-diazaspiro[4.5]decan-2-yl)-2-oxoethyl)-1-oxo-3,5,6,7-tetrahydropyrrolo[3,4-f]isoindol-2(1H)-yl)piperidine-2,6-dione] | < 10 |
| C[C@@H]1Cc2c([nH]c3ccccc23)[C@@H](c2c(F)cc(N3CC4(CN(CC(=O)N5Cc6cc7c(cc6C5)C(=O)N(C5CCC(=O)NC5=O)C7)C4)C3)cc2F)N1CC(F)F (stereo partly drawn) [E 65, 3-(6-(2-(6-(4-((1R,3R)-2-(2,2-difluoroethyl)-3-methyl-2,3,4,9-tetrahydro-1H-pyrido[3,4-b]indol-1-yl)-3,5-difluorophenyl)-2,6-diazaspiro[3.3]heptan-2-yl)acetyl)-1-oxo-3,5,6,7-tetrahydropyrrolo[3,4-f]isoindol-2(1H)-yl)piperidine-2,6-dione] | < 10 |
| C[C@@H]1Cc2c([nH]c3ccccc23)[C@@H](c2c(F)cc(N3CC4(CCN(C(=O)CN5Cc6cc7c(cc6C5)C(=O)N(C5CCC(=O)NC5=O)C7)C4)C3)cc2F)N1CC(F)F (stereo partly drawn) [E 66, 3-(6-(2-(2-(4-((1R,3R)-2-(2,2-difluoroethyl)-3-methyl-2,3,4,9-tetrahydro-1H-pyrido[3,4-b]indol-1-yl)-3,5-difluorophenyl)-2,6-diazaspiro[3.4]octan-6-yl)-2-oxoethyl)-1-oxo-3,5,6,7-tetrahydropyrrolo[3,4-f]isoindol-2(1H)-yl)piperidine-2,6-dione] | < 10 |
| C[C@@H]1Cc2c([nH]c3ccccc23)[C@@H](c2c(F)cc(N3CCCC4(CCN(C(=O)CN5Cc6cc7c(cc6C5)C(=O)N(C5CCC(=O)NC5=O)C7)C4)C3)cc2F)N1CC(F)F (stereo partly drawn) [E 67, 3-(6-(2-(7-(4-((1R,3R)-2-(2,2-difluoroethyl)-3-methyl-2,3,4,9-tetrahydro-1H-pyrido[3,4-b]indol-1-yl)-3,5-difluorophenyl)-2,7-diazaspiro[4.5]decan-2-yl)-2-oxoethyl)-1-oxo-3,5,6,7-tetrahydropyrrolo[3,4-f]isoindol-2(1H)-yl)piperidine-2,6-dione] | 10 to 100 |
| C[C@@H]1Cc2c([nH]c3ccccc23)[C@@H](c2c(F)cc(N3CCC4(CCN(C(=O)CN5Cc6cc7c(cc6C5)C(=O)N(C5CCC(=O)NC5=O)C7)C4)C3)cc2F)N1CC(F)F (stereo partly drawn) [E 68, 3-(6-(2-(7-(4-((1R,3R)-2-(2,2-difluoroethyl)-3-methyl-2,3,4,9-tetrahydro-1H-pyrido[3,4-b]indol-1-yl)-3,5-difluorophenyl)-2,7-diazaspiro[4.4]nonan-2-yl)-2-oxoethyl)-1-oxo-3,5,6,7-tetrahydropyrrolo[3,4-f]isoindol-2(1H)-yl)piperidine-2,6-dione] | 10 to 100 |
| C[C@@H]1Cc2c([nH]c3ccccc23)[C@@H](c2c(F)cc(N3CC4(CCCN(C(=O)CN5Cc6cc7c(cc6C5)C(=O)N(C5CCC(=O)NC5=O)C7)C4)C3)cc2F)N1CC(F)F (stereo partly shown) [E 69] | > 100 |
| C[C@@H]1Cc2c([nH]c3ccccc23)[C@@H](c2c(F)cc(N3CCCC4(CN(C(=O)CN5Cc6cc7c(cc6C5)C(=O)N(C5CCC(=O)NC5=O)C7)C4)C3)cc2F)N1CC(F)F (stereo partly drawn) [E 70, 3-(6-(2-(6-(4-((1R,3R)-2-(2,2-difluoroethyl)-3-methyl-2,3,4,9-tetrahydro-1H-pyrido[3,4-b]indol-1-yl)-3,5-difluorophenyl)-2,6-diazaspiro[3.5]nonan-2-yl)-2-oxoethyl)-1-oxo-3,5,6,7-tetrahydropyrrolo[3,4-f]isoindol-2(1H)-yl)piperidine-2,6-dione] | 10 to 100 |
| C[C@@H]1Cc2c([nH]c3ccccc23)[C@@H](c2c(F)cc(N3CC4(CN(C(=O)CN5Cc6cc7c(cc6C5)C(=O)N(C5CCC(=O)NC5=O)C7)C4)C3)cc2F)N1CC(F)F (stereo partly drawn) [E 71, 3-(6-(2-(6-(4-((1R,3R)-2-(2,2-difluoroethyl)-3-methyl-2,3,4,9-tetrahydro-1H-pyrido[3,4-b]indol-1-yl)-3,5-difluorophenyl)-2,6-diazaspiro[3.3]heptan-2-yl)-2-oxoethyl)-1-oxo-3,5,6,7-tetrahydropyrrolo[3,4-f]isoindol-2(1H)-yl)piperidine-2,6-dione] | < 10 |
| C[C@@H]1Cc2c([nH]c3ccccc23)[C@@H](c2c(F)cc(N3CCC4(CN(C(=O)CN5Cc6cc7c(cc6C5)C(=O)N(C5CCC(=O)NC5=O)C7)C4)C3)cc2F)N1CC(F)F (stereo partly drawn) [E 72, 3-(6-(2-(6-(4-((1R,3R)-2-(2,2-difluoroethyl)-3-methyl-2,3,4,9-tetrahydro-1H-pyrido[3,4-b]indol-1-yl)-3,5-difluorophenyl)-2,6-diazaspiro[3.4]octan-2-yl)-2-oxoethyl)-1-oxo-3,5,6,7-tetrahydropyrrolo[3,4-f]isoindol-2(1H)-yl)piperidine-2,6-dione] | < 10 |
| C[C@@H]1Cc2c([nH]c3ccccc23)[C@@H](c2c(F)cc(N3CC4(CCN(CC(=O)N5Cc6cc7c(cc6C5)C(=O)N(C5CCC(=O)NC5=O)C7)C4)C3)cc2F)N1CC(F)F (stereo partly drawn) [E 73, 3-(6-(2-(2-(4-((1R,3R)-2-(2,2-difluoroethyl)-3-methyl-2,3,4,9-tetrahydro-1H-pyrido[3,4-b]indol-1-yl)-3,5-difluorophenyl)-2,6-diazaspiro[3.4]octan-6-yl)acetyl)-1-oxo-3,5,6,7-tetrahydropyrrolo[3,4-f]isoindol-2(1H)-yl)piperidine-2,6-dione] | < 10 |
| C[C@@H]1Cc2c([nH]c3ccccc23)[C@@H](c2c(F)cc(N3CC4(CCN(CC(=O)N5Cc6cc7c(cc6C5)C(=O)N(C5CCC(=O)NC5=O)C7=O)C4)C3)cc2F)N1CC(F)F (stereo partly drawn) [E 74, 6-(2-(2-(4-((1R,3R)-2-(2,2-difluoroethyl)-3-methyl-2,3,4,9-tetrahydro-1H-pyrido[3,4-b]indol-1-yl)-3,5-difluorophenyl)-2,6-diazaspiro[3.4]octan-6-yl)acetyl)-2-(2,6-dioxopiperidin-3-yl)-6,7-dihydropyrrolo[3,4-f]isoindole-1,3(2H,5H)-dione] | 10 to 100 |
| C[C@@H]1Cc2c([nH]c3ccccc23)[C@@H](c2c(F)cc(N3CCC4(CCN(CC(=O)N5Cc6cc7c(cc6C5)C(=O)N(C5CCC(=O)NC5=O)C7)C4)C3)cc2F)N1CC(F)F (stereo partly drawn) [E 75, 3-(6-(2-(7-(4-((1R,3R)-2-(2,2-difluoroethyl)-3-methyl-2,3,4,9-tetrahydro-1H-pyrido[3,4-b]indol-1-yl)-3,5-difluorophenyl)-2,7-diazaspiro[4.4]nonan-2-yl)acetyl)-1-oxo-3,5,6,7-tetrahydropyrrolo[3,4-f]isoindol-2(1H)-yl)piperidine-2,6-dione] | 10 to 100 |
| C[C@@H]1Cc2c([nH]c3ccccc23)[C@@H](c2c(F)cc(N3CCC4(CCN(CC(=O)N5Cc6cc7c(cc6C5)C(=O)N(C5CCC(=O)NC5=O)C7=O)C4)C3)cc2F)N1CC(F)F (stereo partly drawn) [E 76, 6-(2-(7-(4-((1R,3R)-2-(2,2-difluoroethyl)-3-methyl-2,3,4,9-tetrahydro-1H-pyrido[3,4-b]indol-1-yl)-3,5-difluorophenyl)-2,7-diazaspiro[4.4]nonan-2-yl)acetyl)-2-(2,6-dioxopiperidin-3-yl)-6,7-dihydropyrrolo[3,4-f]isoindole-1,3(2H,5H)-dione] | > 100 |
| C[C@@H]1Cc2c([nH]c3ccccc23)[C@@H](c2c(F)cc(N3CC4(CCN(C(=O)CN5Cc6cc7c(cc6C5)C(=O)N(C5CCC(=O)NC5=O)C7=O)C4)C3)cc2F)N1CC(F)F (stereo partly drawn) [E 77, 6-(2-(2-(4-((1R,3R)-2-(2,2-difluoroethyl)-3-methyl-2,3,4,9-tetrahydro-1H-pyrido[3,4-b]indol-1-yl)-3,5-difluorophenyl)-2,6-diazaspiro[3.4]octan-6-yl)-2-oxoethyl)-2-(2,6-dioxopiperidin-3-yl)-6,7-dihydropyrrolo[3,4-f]isoindole-1,3(2H,5H)-dione] | < 10 |
| C[C@@H]1Cc2c([nH]c3ccccc23)[C@@H](c2c(F)cc(N3CCCC4(CCN(C(=O)CN5Cc6cc7c(cc6C5)C(=O)N(C5CCC(=O)NC5=O)C7=O)C4)C3)cc2F)N1CC(F)F (stereo partly drawn) [E 78, 6-(2-(7-(4-((1R,3R)-2-(2,2-difluoroethyl)-3-methyl-2,3,4,9-tetrahydro-1H-pyrido[3,4-b]indol-1-yl)-3,5-difluorophenyl)-2,7-diazaspiro[4.5]decan-2-yl)-2-oxoethyl)-2-(2,6-dioxopiperidin-3-yl)-6,7-dihydropyrrolo[3,4-f]isoindole-1,3(2H,5H)-dione] | > 100 |
| C[C@@H]1Cc2c([nH]c3ccccc23)[C@@H](c2c(F)cc(N3CCC4(CCN(C(=O)CN5Cc6cc7c(cc6C5)C(=O)N(C5CCC(=O)NC5=O)C7=O)C4)C3)cc2F)N1CC(F)F (stereo partly drawn) [E 79, 6-(2-(7-(4-((1R,3R)-2-(2,2-difluoroethyl)-3-methyl-2,3,4,9-tetrahydro-1H-pyrido[3,4-b]indol-1-yl)-3,5-difluorophenyl)-2,7-diazaspiro[4.4]nonan-2-yl)-2-oxoethyl)-2-(2,6-dioxopiperidin-3-yl)-6,7-dihydropyrrolo[3,4-f]isoindole-1,3(2H,5H)-dione] | 10 to 100 |
